Molecules are shown by their SMILES.

Usually half-life stands for how long it takes for the measured level to halve.

For series [1] the following is noted: oral administration to rats; cited from earlier work.
Series [2] in a line: Regeneration of the parent drug by rat plasma hydrolysis of the prodrug. As to conditions: 37° C., initial prodrug concentration 6.3×10^-5 M, n=2, HPLC. The format is in vitro ADME. On the procedure: The rate of hydrolysis of the acetoxyisopropyl carbamate prodrug of [3(R)-2-(piperidine-4-yl)ethyl]-2-piperidone-1-[(3R)-methyl-5-ketopentanoic acid]by plasma enzymes was studied by measuring the formation of the parent amine drug at 37° C. in rat plasma. The reaction was initiated by adding an aqueous solution of the carbamate prodrug to the reaction medium pre-equilibrated at 37° C. in a thermostated water bath. The initial concentration of the prodrug in rat plasma was 6.3×10^-5 M. Samples (100 μl) were withdrawn at intervals and mixed with saturated ammonium sulfate (200 μl), vortex mixed for 10 seconds and centrifuged for 5 minutes at 14,000 g to precipitate plasma proteins. The supernatant was injected directly and analyzed by HPLC on a 20 cm Brownlee Spheri-5 RP-18 column combined with a similar 3 cm guard column. The mobile phase used for the analysis was 0.01M K2 HPO4 buffer (adjusted to pH 6.5 with phosphoric acid) containing 3% acetonitrile at a flow rate of 1 mL/min. The retention time under these conditions for the amine drug was approximately 15 minutes. The concentration of the compounds was measured at 210 nm using a variable wavelength. UV detector.

Turning to `CCn1cc(C(=O)O)c(=O)c2cc(F)c(N3CCN(Cc4oc(=O)oc4C)CC3)cc21` [alkylated nofloxacin], the “regeneration of the parent drug” value in series [1] was “regenerated the parent drag”. Turning to `CC(=O)OC(C)(C)OC(=O)N1CCC(CC[C@@H]2CCCN(CC(=O)N[C@H](C)CC(=O)O)C2=O)CC1` [acetoxyisopropyl carbamate prodrug, {3(R)-2-{1-[2(Acetoxy)isopropoxycarbonylpiperidine-4yl]-ethyl}piperidone-1}-acetyl-3(R)-methyl-β-alanine], the half-life at 63 µM in series [2] stood at 32 ± 6 min.
